7 cell lines from the supplement of paper PMC10307832 can be followed below.

Common to all, as to assay: relative viability (nuclei count vs DMSO), 5 days (fraction); higher = more cells survive
Compound in assay [1]: C[C@@]1(C(=O)Nc2ccc(F)nc2)CCCN1c1nc(Nc2cc(C3CC3)n[nH]2)c2cccn2n1 + Cc1nc(NC(=O)N2CCC[C@H]2C(N)=O)sc1-c1ccnc(C(C)(C)C(F)(F)F)c1 [Alpelisib] (partner 2 µM)
An outline of the steps:
(§1)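 Dosing by pin tool came one day after lung cancer cell lines were seeded in 1536-well plates, using either one drug or a fixed anchor-drug dose plus five library-drug doses (not always all listed) in √10 steps. After 5 days, nuclei were counted on 4× images. Relative viability is treated-well nuclei count divided by vehicle-well nuclei count, and values are medians of duplicate plates.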

Compound in the assay “Motesanib + Decitabine”: CC1(C)CNc2cc(NC(=O)c3cccnc3NCc3ccncc3)ccc21 [Motesanib] + Nc1ncn([C@H]2C[C@H](O)[C@@H](CO)O2)c(=O)n1 [Decitabine] (partner 2 µM)
In a few lines:
as §1

Compound in the assay “Motesanib + Vorinostat”: CC1(C)CNc2cc(NC(=O)c3cccnc3NCc3ccncc3)ccc21 [Motesanib] + O=C(CCCCCCC(=O)Nc1ccccc1)NO [Vorinostat] (partner 1 µM)
An outline of the steps: as §1

Compound in assay [2]: C[C@@]1(C(=O)Nc2ccc(F)nc2)CCCN1c1nc(Nc2cc(C3CC3)n[nH]2)c2cccn2n1 + CS(=O)(=O)CCNCc1ccc(-c2ccc3ncnc(Nc4ccc(OCc5cccc(F)c5)c(Cl)c4)c3c2)o1 [Lapatinib] (partner 2 µM)
An outline of the steps:
as §1

With NCI-H2085, the relative viability in assay [1] (first compound 0.04 µM) is 0.936; in assay [1] (first compound 0.1265 µM), 0.927; in assay [1] (first compound 0.4 µM), 0.883; in assay [1] (first compound 1.265 µM), 0.851; with Motesanib + Decitabine (first compound 0.01 µM) it was 0.551; with Motesanib + Decitabine (first compound 0.03162 µM), 0.684. Further, the relative viability in the assay with Motesanib + Decitabine (first compound 0.1 µM) worked out at 0.702; in the assay with Motesanib + Decitabine (first compound 0.3162 µM) it was 0.644; with Motesanib + Decitabine (first compound 1 µM), 0.71; with Motesanib + Vorinostat (first compound 0.01 µM), 0.825; in the assay with Motesanib + Vorinostat (first compound 0.03162 µM), 0.823; in the assay with Motesanib + Vorinostat (first compound 0.1 µM) it was 0.821. For the same cell line, the relative viability with Motesanib + Vorinostat (first compound 0.3162 µM) is 0.824; in the assay with Motesanib + Vorinostat (first compound 1 µM), 0.866; in assay [2] (first compound 0.04 µM) it was 0.808; in assay [2] (first compound 0.1265 µM), 0.639; in assay [2] (first compound 0.4 µM) it was 0.661; in assay [2] (first compound 1.265 µM), 0.62.
With NCI-H2087, the relative viability was 1.09 in assay [1] (first compound 0.04 µM); 1.07 in assay [1] (first compound 0.1265 µM); 0.928 in assay [1] (first compound 0.4 µM); 0.851 in assay [1] (first compound 1.265 µM); 0.343 with Motesanib + Decitabine (first compound 0.1 µM); 0.259 with Motesanib + Decitabine (first compound 0.3162 µM). Besides, the relative viability with Motesanib + Decitabine (first compound 1 µM) came to 0.367; with Motesanib + Vorinostat (first compound 0.1 µM) it was 0.561; in the assay with Motesanib + Vorinostat (first compound 0.3162 µM) it was 0.764; with Motesanib + Vorinostat (first compound 1 µM), 0.791; in assay [2] (first compound 0.04 µM) it was 1.09; in assay [2] (first compound 0.1265 µM) it was 0.958. The relative viability in assay [2] (first compound 0.4 µM) stood at 0.88; in assay [2] (first compound 1.265 µM) it was 0.945.
NCI-H2126: the relative viability in assay [1] (first compound 0.04 µM) was 0.637; in assay [1] (first compound 0.1265 µM) it was 0.561; in assay [1] (first compound 0.4 µM), 0.531; in assay [1] (first compound 1.265 µM), 0.657; with Motesanib + Decitabine (first compound 0.01 µM) it was 0.608; with Motesanib + Decitabine (first compound 0.03162 µM) it was 0.645. Also, the relative viability with Motesanib + Decitabine (first compound 0.1 µM) was 0.625; with Motesanib + Decitabine (first compound 0.3162 µM), 0.698; in the assay with Motesanib + Decitabine (first compound 1 µM), 0.709; with Motesanib + Vorinostat (first compound 0.01 µM), 0.858; in the assay with Motesanib + Vorinostat (first compound 0.03162 µM), 0.774; in the assay with Motesanib + Vorinostat (first compound 0.1 µM), 0.643. Further, the relative viability in the assay with Motesanib + Vorinostat (first compound 0.3162 µM) was 0.926; in the assay with Motesanib + Vorinostat (first compound 1 µM), 0.813; in assay [2] (first compound 0.04 µM), 0.693; in assay [2] (first compound 0.1265 µM) it was 0.454; in assay [2] (first compound 0.4 µM), 0.376; in assay [2] (first compound 1.265 µM) it was 0.399.
Regarding NCI-H2170, the relative viability in assay [1] (first compound 0.04 µM) is 0.728; in assay [1] (first compound 0.1265 µM), 0.658; in assay [1] (first compound 0.4 µM) it was 0.606; in assay [1] (first compound 1.265 µM), 0.728; with Motesanib + Decitabine (first compound 0.01 µM), 0.485; with Motesanib + Decitabine (first compound 0.03162 µM), 0.509. The relative viability with Motesanib + Decitabine (first compound 0.1 µM) stood at 0.575; with Motesanib + Decitabine (first compound 0.3162 µM) it was 0.576; with Motesanib + Decitabine (first compound 1 µM) it was 0.604; with Motesanib + Vorinostat (first compound 0.01 µM) it was 0.797; with Motesanib + Vorinostat (first compound 0.03162 µM), 0.851; in the assay with Motesanib + Vorinostat (first compound 0.1 µM), 0.804. Moreover, the relative viability came out at 0.837 with Motesanib + Vorinostat (first compound 0.3162 µM); 0.818 in the assay with Motesanib + Vorinostat (first compound 1 µM); 0.245 in assay [2] (first compound 0.04 µM); 0.258 in assay [2] (first compound 0.1265 µM); 0.283 in assay [2] (first compound 0.4 µM); 0.271 in assay [2] (first compound 1.265 µM).
Consider NCI-H2347, for which the relative viability in assay [1] (first compound 0.04 µM) was 1.17; in assay [1] (first compound 0.1265 µM), 0.873; in assay [1] (first compound 0.4 µM), 0.94; in assay [1] (first compound 1.265 µM) it was 1.11; in the assay with Motesanib + Decitabine (first compound 0.01 µM), 0.667; with Motesanib + Decitabine (first compound 0.03162 µM), 0.578. Moreover, the relative viability in the assay with Motesanib + Decitabine (first compound 0.1 µM) worked out at 0.701; with Motesanib + Decitabine (first compound 0.3162 µM) it was 0.642; with Motesanib + Decitabine (first compound 1 µM) it was 0.674; with Motesanib + Vorinostat (first compound 0.01 µM) it was 0.538; in the assay with Motesanib + Vorinostat (first compound 0.03162 µM) it was 0.555; in the assay with Motesanib + Vorinostat (first compound 0.1 µM), 0.527. Further, the relative viability was determined as 0.704 in the assay with Motesanib + Vorinostat (first compound 0.3162 µM); 0.621 in the assay with Motesanib + Vorinostat (first compound 1 µM); 0.955 in assay [2] (first compound 0.04 µM); 0.874 in assay [2] (first compound 0.1265 µM); 0.842 in assay [2] (first compound 0.4 µM); 0.959 in assay [2] (first compound 1.265 µM).
For NCI-H2405, the relative viability amounted to 0.785 in assay [1] (first compound 0.04 µM); 0.688 in assay [1] (first compound 0.1265 µM); 0.552 in assay [1] (first compound 0.4 µM); 0.573 in assay [1] (first compound 1.265 µM); 0.77 with Motesanib + Decitabine (first compound 0.01 µM); 0.773 with Motesanib + Decitabine (first compound 0.03162 µM). Also, the relative viability is 0.719 with Motesanib + Decitabine (first compound 0.1 µM); 0.833 with Motesanib + Decitabine (first compound 0.3162 µM); 0.78 with Motesanib + Decitabine (first compound 1 µM); 0.941 in the assay with Motesanib + Vorinostat (first compound 0.01 µM); 0.989 with Motesanib + Vorinostat (first compound 0.03162 µM); 0.96 with Motesanib + Vorinostat (first compound 0.1 µM). Further, the relative viability with Motesanib + Vorinostat (first compound 0.3162 µM) turned out to be 1; with Motesanib + Vorinostat (first compound 1 µM), 0.994; in assay [2] (first compound 0.04 µM), 0.762; in assay [2] (first compound 0.1265 µM) it was 0.706; in assay [2] (first compound 0.4 µM), 0.76; in assay [2] (first compound 1.265 µM) it was 0.744.
In the case of NCI-H3122, the relative viability in assay [1] (first compound 0.04 µM) was 0.637; in assay [1] (first compound 0.1265 µM) it was 0.514; in assay [1] (first compound 0.4 µM) it was 0.631; in assay [1] (first compound 1.265 µM), 0.564; with Motesanib + Decitabine (first compound 0.01 µM) it was 0.436; with Motesanib + Decitabine (first compound 0.03162 µM), 0.409. Also, the relative viability came to 0.422 with Motesanib + Decitabine (first compound 0.1 µM); 0.548 with Motesanib + Decitabine (first compound 0.3162 µM); 0.614 with Motesanib + Decitabine (first compound 1 µM); 0.962 in the assay with Motesanib + Vorinostat (first compound 0.01 µM); 1.05 with Motesanib + Vorinostat (first compound 0.03162 µM); 1.08 with Motesanib + Vorinostat (first compound 0.1 µM). Besides, the relative viability in the assay with Motesanib + Vorinostat (first compound 0.3162 µM) was 1.12; with Motesanib + Vorinostat (first compound 1 µM), 1; in assay [2] (first compound 0.04 µM), 0.94; in assay [2] (first compound 0.1265 µM), 1.03; in assay [2] (first compound 0.4 µM), 0.958; in assay [2] (first compound 1.265 µM), 1.03.
